In patent US5686486A, “4-hydroxy-benzopyran-2-ones and 4-hydroxy-cycloalkyl[b]pyran-2-ones useful to treat retroviral infections” (priority 1995, dated 1997):
Values joined by “and” are separate entries in the source; they are usually repeats but may differ in a detail not shown here. Equal values may be shown once. Read-outs that look alike come from different tables or passages of the source.

Target: HIV-1 protease (Human immunodeficiency virus type 1 group M subtype B, UniProt P04585)
Test: biochemical
Conditions: for inhibition at 0.41 µM: read-out: HIV-1 Protease % Inhib, dose 0.410 uM; for inhibition at 1.23 µM: read-out: HIV-1 Protease % Inhib, dose 1.230 uM; for inhibition at 3.7 µM: read-out: HIV-1 Protease % Inhib, dose 3.700 uM; for inhibition at 11 µM: read-out: HIV-1 Protease % Inhib, dose 11.000 uM; for inhibition at 33 µM: read-out: HIV-1 Protease % Inhib, dose 33.000 uM
Summary of the method: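 Percent inhibition derived from fluorescent cleavage product separated by filtration after streptavidin-bead capture of intact biotin/FITC substrate. Reaction: enzyme (10 μl, 0.1 μM stock) with substrate (20 μl, 0.2 μM stock) and compound, 1 h at room temperature in dark, pH 5.5 acetate buffer with 1.0 M NaCl and 0.05% NP-40.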

[1] = dose 1.000 uM, read-out: HIV-1 Protease % Inhib
[2] = dose 10.000 uM, read-out: HIV-1 Protease % Inhib
[3] = dose 100.000 uM, read-out: HIV-1 Protease % Inhib
[4] = read-out: HIV-1 Protease % Inhib, dose 100.000 uM
[5] = read-out: HIV-1 Protease % Inhib, dose 1.000 uM
[6] = read-out: HIV-1 Protease % Inhib, dose 10.000 uM
[7] = dose 1.100 uM, read-out: HIV-1 Protease % Inhib
[8] = dose 3.300 uM, read-out: HIV-1 Protease % Inhib
[9] = dose 30.000 uM, read-out: HIV-1 Protease % Inhib

Structure (SMILES)	inhibition at 100 µM [4] [%]	inhibition at 1 µM [5] [%]	inhibition at 10 µM [6] [%]	also measured
O=c1oc2c(c(O)c1C(c1ccccc1)C1CC1)CCC2 (stereo not shown) [Example 113, 3-(Cyclopropylphenylmethyl)-6,7-dihydro-4-hydroxy-cyclopenta[b]pyran-2(5H)-one]	–	–	–	inhibition at 1 µM [1]: 39.6%; inhibition at 10 µM [2]: 99.8%; inhibition at 100 µM [3]: 109%
O=c1oc2c(c(O)c1C(c1ccccc1)C1CC1)CCCCCCCCCC2 (stereo not shown) [Example 114, 3-(Cyclopropylphenylmethyl)-5,6,7,8,9,10,11,12,13,14-decahydro-4-hydroxy-2H-cyclododeca[b]pyran-2-one]	–	–	–	inhibition at 1 µM [1]: < 10%; inhibition at 10 µM [2]: < 10%; inhibition at 100 µM [3]: 14.1%
O=c1oc2c(c(O)c1C(C1CC1)C1CC1)CCCCCC2 [Example 118, 3-(Dicyclopropylmethyl)-5,6,7,8,9,10-hexahydro-4-hydroxy-2H-cycloocta[b]pyran-2-one]	105	–	–	inhibition at 0.41 µM: 68.7%; inhibition at 1.23 µM: 87.9%; inhibition at 3.7 µM: 99%; inhibition at 11 µM: 110%; inhibition at 33 µM: 103%
CCC(c1ccccc1)c1c(O)c2ccc(OCCN3CCOCC3)cc2oc1=O (stereo not shown) [Example 141, 4-Hydroxy-7-(2-morpholin-4-yl-ethoxy)-3-(1-phenyl-propyl)-chromen-2-one]	103	14.2	77.4	–
O=c1oc2ccccc2c(O)c1C1(c2ccccc2)CC1 [Example 142, 4-Hydroxy-3-(1-phenyl-cyclopropyl)-chromen-2-one]	71.8	< 10	15.7	–
CCC(c1cccc(C(=O)NC2c3ccccc3CC2O)c1)c1c(O)c2ccccc2oc1=O (stereo not shown) [Example 143, N-(2-Hydroxy-indan-1-yl)-3-(1-(4-hydroxy-2-oxo-2H-chromen-3-yl)-propyl)-benzamide]	92.1	10.8	77.1	–
CCC(Cc1ccccc1)c1c(O)c2ccccc2oc1=O (stereo not shown) [Example 144, 3-(1-Benzyl-propyl)4-hydroxy-chromen-2-one]	86	25.9	77	–
O=c1oc2ccccc2c(O)c1C(CCc1ccccc1)Cc1ccccc1 (stereo not shown) [Example 145, 3-(1-Benzyl-3-phenyl-propyl)4-hydroxy-chromen-2-one]	97	37	81	–
CCCC(Cc1ccccc1)c1c(O)c2ccccc2oc1=O (stereo not shown) [Example 147, 3-(1 -Benzyl-butyl)-4-hydroxy-chromen-2-one]	96.5	34.7	86.3	–
CCC(c1cccc(C(=O)NCc2nc3ccccc3[nH]2)c1)c1c(O)c2ccccc2oc1=O (stereo not shown) [Example 148, N-(1H-Benzoimidazol-2-ylmethyl)-3-(1-(4-hydroxy-2-oxo-2H-chromen-3-yl)-propyl)-benzamide]	93.7	< 10	57.9	–
CC(=O)Oc1ccc(C(C)(C)c2c(O)c3ccccc3oc2=O)cc1 [Example 150, Acetic acid 4-(1-(4-Hydroxy-2-oxo-2H-chromen-3-yl)-l-methyl-ethyl)-phenylester]	93	< 10	62.4	–
CCC(c1ccccc1)c1c(O)c2ccc(OCCOCCOC)cc2oc1=O (stereo not shown) [Example 151, 4-Hydroxy-7-(2-(2-methoxy-ethoxy)-ethoxy)-3-(1-phenyl-propyl)-chromen-2-one]	92.4	29.1	82.8	–
Cc1cc(C)c2c(c1)C(c1c(O)c3ccccc3oc1=O)CCO2 (stereo not shown) [Example 153, 4-Hydroxy-6',8'-Dimethyl-3',4'-dihydro-2'H-[3',4']bicromenyl-2-one]	–	< 10	34	HIV-1 Protease % Inhib (dose 100.000 uM): 79.57% and 115.36%
CCC(CCc1ccccc1)c1c(O)c2ccccc2oc1=O (stereo not shown) [Example 155, 3-(1-Ethyl-3-phenyl-propyl)4-hydroxy-chromen-2-one]	91.9	15.4	74.9	–
CCC(CCCc1ccccc1)c1c(O)c2ccccc2oc1=O (stereo not shown) [Example 156, 3-(1-Ethyl4-phenyl-butyl)-4-hydroxy-chromen-2-one]	63.7	17.1	33.6	–
COC(=O)C(C(=O)OC)C(c1ccccc1)c1c(O)c2ccccc2oc1=O (stereo not shown) [Example 157, 2-((4-Hydroxy-2-oxo-2H-chromen-3-yl)-phenyl-methyl)-malonic acid dimethyl ester]	64	< 10	< 10	–
O=c1oc2ccccc2c(O)c1C1CCOc2ccccc21 (stereo not shown) [Example 158, 4-Hydroxy-3',4'-dihydro-2'H-[3,4]bichromenyl-2-one]	93.4	< 10	26.7	–
O=c1oc2ccccc2c(O)c1C(CCO)c1ccccc1 (stereo not shown) [Example 160, 4-Hydroxy-3-(3-hydroxy-1-phenyl-propyl)-chromen-2-one]	82.6	–	–	inhibition at 0.41 µM: < 10%; inhibition at 1.23 µM: < 10%; inhibition at 3.7 µM: < 10%; inhibition at 11 µM: 14.2%; inhibition at 33 µM: 40.4%
COc1ccc2c(O)c(C(c3cccc(NC(=O)OCc4ccccc4)c3)C3CC3)c(=O)oc2c1 (stereo not shown) [Example 166, Carbamic acid, [3-[cyclopropyl(4-hydroxy-7-methoxy-2-oxo-2H-1-benzopyran-3-yl)methyl]phenyl]-, phenylmethyl ester]	100	–	–	inhibition at 0.41 µM: < 10%; inhibition at 1.23 µM: 13.2%; inhibition at 3.7 µM: 33.4%; inhibition at 11 µM: 58.9%; inhibition at 33 µM: 89.1%
CCCOc1ccc2c(O)c(C(CC)c3ccccc3)c(=O)oc2c1 (stereo not shown) [Example 169, Coumarin, 4-hydroxy-3-(1-phenylpropyl)-7-propoxy]	–	–	76.8	inhibition at 1.1 µM (read-out: HIV-1 Protease % Inhib, dose 1.100 uM): 13.1%; inhibition at 3.3 µM (read-out: HIV-1 Protease % Inhib, dose 3.300 uM): 44.4%; inhibition at 30 µM (read-out: HIV-1 Protease % Inhib, dose 30.000 uM): 99.9%
COCCOCCC1CCCCCc2c1oc(=O)c(C(c1ccccc1)C1CC1)c2O (stereo not shown) [Example 172, 3-(Cyclopropylphenylmethyl)-5,6,7,8,9,10-hexahydro-4-hydroxy-10-[2-(2-methoxyethoxy)ethyl]-2H-cycloocta[b]pyran-2-one]	–	–	–	inhibition at 1.1 µM [7]: 31.9%; inhibition at 3.3 µM [8]: 73.5%; inhibition at 10 µM [2]: 97.8%; inhibition at 30 µM [9]: 110%
O=c1oc2c(c(O)c1C(c1ccccc1)C1CC1)CCCCCC2CO (stereo not shown) [Example 173, 3-(Cyclopropylphenylmethyl)-5,6,7,8,9,10-hexahydro-4-hydroxy-10-(hydroxymethyl)-2H-cycloocta[b]pyran-2-one]	–	–	–	inhibition at 1.1 µM [7]: 15%; inhibition at 3.3 µM [8]: 36.5%; inhibition at 10 µM [2]: 76.7%; inhibition at 30 µM [9]: 97.2%
CC(C)(O)C1CCCCCc2c1oc(=O)c(C(c1ccccc1)C1CC1)c2O (stereo not shown) [Example 175, 3-(Cyclopropylphenylmethyl)-5,6,7,8,9,10-hexahydro-4-hydroxy-10-(1-hydroxy-1-methylethyl)-2H-cycloocta[b]pyran-2-one]	–	–	–	inhibition at 1.1 µM [7]: 19.4%; inhibition at 3.3 µM [8]: 55.5%; inhibition at 10 µM [2]: 88.5%; inhibition at 30 µM [9]: 105%
